Measured values reported in patent US20250296959A1, “B7-H3 TARGETING PEPTIDES AND CONSTRUCTS THEREOF” (Mariana Oncology Inc., priority 2024, published 2025).
Positions of bridges follow the written chain, without caps; N, C: chain ends. Non-standard residues stand in square brackets, D forms with d. Residues, ends and D or L forms follow the SMILES beside them. *: point of attachment. DOTA = O=C(O)CN1CCN(CC(=O)O)CCN(CC(=O)*)CCN(CC(=O)O)CC1; Trp(5-F) = N[C@@H](Cc1c[nH]c2ccc(F)cc12)C(=O)O; Phe(3-F) = N[C@@H](Cc1cccc(F)c1)C(=O)O; Phe(4-F) = N[C@@H](Cc1ccc(F)cc1)C(=O)O; hTyr = N[C@@H](CCc1ccc(O)cc1)C(=O)O; tBuAla = CC(C)(C)C[C@H](N)C(=O)O; αMeF = C[C@](N)(Cc1ccccc1)C(=O)O; 3Pal = N[C@@H](Cc1cccnc1)C(=O)O; aThr = C[C@H](O)[C@H](N)C(=O)O; NMeNle = CCCC[C@H](NC)C(=O)O; hLeu = CC(C)CC[C@H](N)C(=O)O

Biological target: T1, human 4lg B7-H3 (Homo sapiens, UniProt Q5ZPR3)
T1 sequence (Q5ZPR3 29-534): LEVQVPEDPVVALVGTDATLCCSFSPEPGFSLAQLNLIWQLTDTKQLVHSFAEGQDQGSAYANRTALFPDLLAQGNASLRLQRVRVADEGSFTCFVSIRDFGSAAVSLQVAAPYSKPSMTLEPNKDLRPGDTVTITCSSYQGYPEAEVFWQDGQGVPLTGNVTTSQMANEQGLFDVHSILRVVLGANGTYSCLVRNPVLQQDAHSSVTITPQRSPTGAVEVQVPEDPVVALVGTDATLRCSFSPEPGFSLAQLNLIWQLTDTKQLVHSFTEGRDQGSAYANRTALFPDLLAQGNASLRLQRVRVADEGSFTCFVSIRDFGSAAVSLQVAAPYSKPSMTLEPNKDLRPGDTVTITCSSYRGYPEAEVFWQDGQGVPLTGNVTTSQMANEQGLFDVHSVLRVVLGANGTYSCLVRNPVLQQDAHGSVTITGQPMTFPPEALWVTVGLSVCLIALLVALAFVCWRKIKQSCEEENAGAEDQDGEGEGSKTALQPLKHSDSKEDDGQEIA
Test: Affinity determination by surface plasmon resonance (SPR) to 4Ig B7-H3
Conditions: SPR KD—25° C., 4Ig B7-H3; 25° C. flow cell temperature

CC(=O)N[C@@H](CCC(C)C)C(=O)N[C@@H](Cc1ccc(O)cc1)C(=O)N[C@H]1CSSC[C@@H](C(=O)N[C@@H](Cc2c[nH]c3ccc(F)cc23)C(=O)N[C@@H](Cc2ccccc2)C(=O)N[C@H](C(=O)N[C@H](CCCCNC(=O)CN2CCN(CC(=O)O)CCN(CC(=O)O)CCN(CC(=O)O)CC2)C(N)=O)[C@@H](C)O)NC(=O)[C@H](Cc2ccc(O)cc2)NC(=O)[C@H](C(C)C)NC(=O)[C@H](CC(=O)O)NC(=O)[C@H](CCc2ccc(O)cc2)NC(=O)[C@H](CCCCN)NC(=O)CNC(=O)[C@H](C(C)C)NC1=O [compound 167, Ac-hLeu-Y-C-V-G-K-hTyr-D-V-Y-C-5FW-F-Thr-dLys(DOTA)-CONH2] (Ac-[hLeu]YCVGK[hTyr]DVYC[Trp(5-F)]FT[dK](DOTA)-NH2; disulfide 3-11)
Kd: 1 to 10 nM

CC(=O)N[C@@H](CCC(C)C)C(=O)N[C@@H](Cc1ccc(O)cc1)C(=O)N[C@H]1CSSC[C@@H](C(=O)N[C@@H](Cc2c[nH]c3ccc(F)cc23)C(=O)N[C@@](C)(Cc2ccccc2)C(=O)N[C@H](C(=O)N[C@H](CCCCNC(=O)CN2CCN(CC(=O)O)CCN(CC(=O)O)CCN(CC(=O)O)CC2)C(N)=O)[C@@H](C)O)NC(=O)[C@H](Cc2ccc(O)cc2)NC(=O)[C@H](C(C)C)NC(=O)[C@H](CC(=O)O)NC(=O)[C@H](Cc2ccc(O)cc2)NC(=O)[C@H](CCCCN)NC(=O)CNC(=O)[C@H](C(C)C)NC1=O [compound 168, Ac-hLeu-Y-C-V-G-K-Y-D-V-Y-C-5FW-aMePhe-Thr-dLys(DOTA)-CONH2] (Ac-[hLeu]YCVGKYDVYC[Trp(5-F)][αMeF]T[dK](DOTA)-NH2; disulfide 3-11)
Kd: 100 to 300 nM

CC(=O)N[C@@H](CCC(C)C)C(=O)N[C@@H](Cc1ccc(O)cc1)C(=O)N[C@H]1CSSC[C@@H](C(=O)N[C@@H](Cc2c[nH]c3ccc(F)cc23)C(=O)N[C@@H](Cc2ccccc2)C(=O)N[C@H](C(=O)N[C@H](CCCCNC(=O)CN2CCN(CC(=O)O)CCN(CC(=O)O)CCN(CC(=O)O)CC2)C(N)=O)[C@@H](C)O)NC(=O)[C@H](Cc2cccnc2)NC(=O)[C@H](C(C)C)NC(=O)[C@H](CC(=O)O)NC(=O)[C@H](Cc2ccc(O)cc2)NC(=O)[C@H](CCCCN)NC(=O)CNC(=O)[C@H](C(C)C)NC1=O [compound 170, Ac-hLeu-Y-C-V-G-K-Y-D-V-3PyA-C-5FW-F-Thr-dLys(DOTA)-CONH2] (Ac-[hLeu]YCVGKYDV[3Pal]C[Trp(5-F)]FT[dK](DOTA)-NH2; disulfide 3-11)
Kd: 1 to 10 nM

COc1ccc(C[C@@H]2NC(=O)[C@H](C(C)C)NC(=O)[C@H](CC(=O)O)NC(=O)[C@H](Cc3ccc(O)cc3)NC(=O)[C@H](CCCCN)NC(=O)CNC(=O)[C@H](C(C)C)NC(=O)[C@@H](NC(=O)[C@H](Cc3ccc(O)cc3)NC(=O)[C@H](CCC(C)C)NC(C)=O)CSSC[C@@H](C(=O)N[C@@H](Cc3c[nH]c4ccc(F)cc34)C(=O)N[C@@H](Cc3ccccc3)C(=O)N[C@H](C(=O)N[C@H](CCCCNC(=O)CN3CCN(CC(=O)O)CCN(CC(=O)O)CCN(CC(=O)O)CC3)C(N)=O)[C@@H](C)O)NC2=O)cc1 [compound 171, Ac-hLeu-Y-C-V-G-K-Y-D-V-OMeTyr-C-5FW-F-Thr-dLys(DOTA)-CONH2] (Ac-[hLeu]YCVGKYDVY(Me)C[Trp(5-F)]FT[dK](DOTA)-NH2; disulfide 3-11)
Kd: < 1 nM

CC(=O)N[C@@H](CCC(C)C)C(=O)N[C@@H](Cc1ccc(O)cc1)C(=O)N[C@H]1CSSC[C@@H](C(=O)N[C@@H](Cc2c[nH]c3ccc(F)cc23)C(=O)N[C@@H](Cc2ccccc2)C(=O)N[C@H](C(=O)N[C@H](CCCCNC(=O)CN2CCN(CC(=O)O)CCN(CC(=O)O)CCN(CC(=O)O)CC2)C(N)=O)[C@@H](C)O)NC(=O)[C@H](Cc2ccc(F)cc2)NC(=O)[C@H](C(C)C)NC(=O)[C@H](CC(=O)O)NC(=O)[C@H](Cc2ccc(O)cc2)NC(=O)[C@H](CCCCN)NC(=O)CNC(=O)[C@H](C(C)C)NC1=O [compound 172, Ac-hLeu-Y-C-V-G-K-Y-D-V-4FPhe-C-5FW-F-Thr-dLys(DOTA)-CONH2] (Ac-[hLeu]YCVGKYDV[Phe(4-F)]C[Trp(5-F)]FT[dK](DOTA)-NH2; disulfide 3-11)
Kd: 1 to 10 nM

CC(=O)N[C@@H](CCC(C)C)C(=O)N[C@@H](Cc1ccc(O)cc1)C(=O)N[C@H]1CSSC[C@@H](C(=O)N[C@@H](Cc2c[nH]c3ccc(F)cc23)C(=O)N[C@@H](Cc2cccc(F)c2)C(=O)N[C@H](C(=O)N[C@H](CCCCNC(=O)CN2CCN(CC(=O)O)CCN(CC(=O)O)CCN(CC(=O)O)CC2)C(N)=O)[C@@H](C)O)NC(=O)[C@H](Cc2ccc(O)cc2)NC(=O)[C@H](C(C)C)NC(=O)[C@H](CC(=O)O)NC(=O)[C@H](Cc2ccc(O)cc2)NC(=O)[C@H](CCCCN)NC(=O)CNC(=O)[C@H](C(C)C)NC1=O [compound 173, Ac-hLeu-Y-C-V-G-K-Y-D-V-Y-C-5FW-3FPhe-Thr-dLys(DOTA)-CONH2] (Ac-[hLeu]YCVGKYDVYC[Trp(5-F)][Phe(3-F)]T[dK](DOTA)-NH2; disulfide 3-11)
Kd: < 1 nM

CC(=O)N[C@@H](CCC(C)C)C(=O)N[C@@H](Cc1ccc(O)cc1)C(=O)N[C@H]1CSSC[C@@H](C(=O)N[C@@H](Cc2c[nH]c3ccc(F)cc23)C(=O)N[C@@H](Cc2ccccc2)C(=O)N[C@H](C(=O)N[C@H](CCCCNC(=O)CN2CCN(CC(=O)O)CCN(CC(=O)O)CCN(CC(=O)O)CC2)C(N)=O)[C@@H](C)O)NC(=O)[C@H](Cc2ccc(O)cc2)NC(=O)[C@H](C(C)C)NC(=O)[C@H](CC(=O)O)NC(=O)[C@H](Cc2ccc(O)cc2)NC(=O)[C@H](CCCCN)NC(=O)CNC(=O)[C@H](CC(C)(C)C)NC1=O [compound 174, Ac-hLeu-Y-C-tBuAla-G-K-Y-D-V-Y-C-5FW-F-Thr-dLys(DOTA)-CONH2] (Ac-[hLeu]YC[tBuAla]GKYDVYC[Trp(5-F)]FT[dK](DOTA)-NH2; disulfide 3-11)
Kd: 10 to 100 nM

CCCC[C@@H](C(=O)N[C@H](C(=O)N[C@H](CCCCNC(=O)CN1CCN(CC(=O)O)CCN(CC(=O)O)CCN(CC(=O)O)CC1)C(N)=O)[C@@H](C)O)N(C)C(=O)[C@H](Cc1c[nH]c2ccc(F)cc12)NC(=O)[C@@H]1CSSC[C@H](NC(=O)[C@H](Cc2ccc(O)cc2)NC(=O)[C@H](CCC(C)C)NC(C)=O)C(=O)N[C@@H](C(C)C)C(=O)NCC(=O)N[C@@H](CCCCN)C(=O)N[C@@H](Cc2ccc(O)cc2)C(=O)N[C@@H](CC(=O)O)C(=O)N[C@@H](C(C)C)C(=O)N[C@@H](Cc2ccc(O)cc2)C(=O)N1 [compound 176, Ac-hLeu-Y-C-V-G-K-Y-D-V-Y-C-5FW-NMeNle-Thr-dLys(DOTA)-CONH2] (Ac-[hLeu]YCVGKYDVYC[Trp(5-F)][NMeNle]T[dK](DOTA)-NH2; disulfide 3-11)
Kd: 1 to 10 nM

CC(=O)N[C@@H](CCC(C)C)C(=O)N[C@@H](Cc1ccc(O)cc1)C(=O)N[C@H]1CSSC[C@@H](C(=O)N[C@@H](Cc2c[nH]c3ccc(F)cc23)C(=O)N[C@@H](Cc2ccccc2)C(=O)N[C@H](C(=O)N[C@H](CCCCNC(=O)CN2CCN(CC(=O)O)CCN(CC(=O)O)CCN(CC(=O)O)CC2)C(N)=O)[C@@H](C)O)NC(=O)[C@H](Cc2ccc(O)cc2)NC(=O)[C@H](C(C)C)NC(=O)[C@H](CC(=O)O)NC(=O)[C@H]([C@H](C)O)NC(=O)[C@H](CCCCN)NC(=O)CNC(=O)[C@H](C(C)C)NC1=O [compound 178, Ac-hLeu-Y-C-V-G-K-alloThr-D-V-Y-C-5FW-F-Thr-dLys(DOTA)-CONH2] (Ac-[hLeu]YCVGK[aThr]DVYC[Trp(5-F)]FT[dK](DOTA)-NH2; disulfide 3-11)
Kd: 1 to 10 nM
